Laboratory results: PMC5837957 (European journal of medicinal chemistry, 2018)
Several values for one entry are separate records, joined by “and”; a condition that tells them apart may be missing. Identical values can stand only once. Entries after “also recorded” stand apart in the source; their conditions may differ. Like-named read-outs stand apart in the source and are kept apart here. Positions of bridges follow the written chain, without caps; N, C: chain ends. Residues, ends and D or L forms follow the SMILES beside them. *: point of attachment. Stearoyl = CCCCCCCCCCCCCCCCCC(=O)*; Octanoyl = CCCCCCCC(=O)*

What was measured:
[1] = test system: MCF-7 breast cancer line; test: cells; conditions: Homo sapiens, MCF7, 72 h, 72-hour treatment
[2] = test system: Calu-6 lung cancer cell line; test: cells; conditions: Homo sapiens, Calu-6, 72 h, 72-hour treatment
[3] = test system: MCF-7 breast cancer line; conditions: 2 h
[4] = test system: Calu-6 lung cancer cell line; conditions: for IC50: 2 h; for % cell death Calu 6: 72-hour treatment, inactive indicates no growth inhibition at a concentration of 100 µM
[5] = test system: H3K4me2 at the promoter of the IGFBP2 gene in NCI-H526 cells; test: ChIP-qPCR of H3K4me2 at IGFBP2 promoter; assay type: cell-based; conditions: 100 µM, 48 h
[6] = test system: global H3K4me2 in K562 leukemia cells; test: Western blot of global H3K4me2, K562
[7] = test system: global H3K4me2 in Calu6 lung adenocarcinoma cells; test: Western blot of global H3K4me2, Calu6; conditions: 10 µM, 48-hour exposure
[8] = test system: H3K4me2 at the promoter of the FEZ1 gene in NCI-H526 cells; test: ChIP-qPCR of H3K4me2 at FEZ1 promoter; assay type: cell-based; conditions: 100 µM, 48 h
[9] = test system: K562 myelogenous leukemia cell line; conditions: for % cell death K562: 72-hour treatment
[10] = target: recombinant LSD1/CoREST (Homo sapiens, UniProt O60341); test: In vitro LSD1 demethylation assay; assay type: biochemical; conditions: Table 3, truncated peptides; inhibitor 500 nM; 0.5 µM
[11] = test system: MCF-7 breast cancer line; conditions: read-out: IC50 (MCF7); cited from earlier work
[12] = test system: Calu-6 lung cancer cell line; conditions: read-out: IC50 (Calu-6); cited from earlier work
[13] = target: LSD1 bound to CoREST; conditions: read-out: Ki, LSD1 bound to CoREST; cited from earlier work
[14] = test system: recombinant LSD1; conditions: cited from earlier work

N=C(NCCCNCCCCCCCNCCCNC(=N)NC(=N)NCCC(c1ccccc1)c1ccccc1)NC(=N)NCCC(c1ccccc1)c1ccccc1 [Compound 3, verlindamycin]
IC50 ([1]; read-out: IC50 (MCF7), Table 2): 5.1 µM | IC50 ([1]; read-out: IC50 (MCF7), Table 6): 2.5 µM | IC50 ([2]; read-out: IC50 (Calu-6), Table 2): 6.3 µM | IC50 ([2]; read-out: IC50 (Calu-6), Table 6): 1.6 µM

CCCCCCCCCCCCCCCCCC(=O)NCCCC[C@H](NC(=O)[C@H](C)NC(=O)[C@H](CC(C)C)NC(=O)[C@H](CCC(N)=O)NC(=O)[C@H](CCCCN)NC(=O)[C@H](CCCNC(=N)N)NC(=O)[C@@H]1CCCN1C(=O)[C@H](C)NC(=O)[C@H](CCCCN)NC(=O)CNC(=O)CNC(=O)[C@@H](NC(=O)[C@@H]1CCC(=O)NCCCC[C@H](NC(=O)[C@H](CCSC)NC(=O)[C@@H](NC(=O)[C@H](CCCNC(=N)N)NC(=O)[C@H](C)N)[C@@H](C)O)C(=O)N[C@@H]([C@@H](C)O)C(=O)N[C@@H](C)C(=O)N[C@@H](CCCNC(=N)N)C(=O)N[C@@H](CCCCN)C(=O)N1)[C@@H](C)O)C(N)=O [Compound 25]
IC50 [3]: < 5 µM | IC50 [4]: < 11 µM

CCCCCCCCCCCCCCCCCC(=O)NCCCC[C@H](NC(=O)[C@H](C)NC(=O)[C@H](CC(C)C)NC(=O)[C@H](CCC(N)=O)NC(=O)[C@H](CCCCN)NC(=O)[C@H](CCCNC(=N)N)NC(=O)[C@@H]1CCCN1C(=O)[C@H](C)NC(=O)[C@H](CCCCN)NC(=O)CNC(=O)CNC(=O)[C@@H](NC(=O)[C@@H]1CCC(=O)NCCCC[C@H](NC(=O)[C@H](CCSC)NC(=O)[C@H](C)NC(=O)[C@H](CCCNC(=N)N)NC(=O)[C@H](C)N)C(=O)N[C@@H]([C@@H](C)O)C(=O)N[C@@H](C)C(=O)N[C@@H](CCCNC(=N)N)C(=O)N[C@@H](CCCCN)C(=O)N1)[C@@H](C)O)C(N)=O [Compound 26] (H-ARAMKTARKETGGKAPRKQLAK(Stearoyl)-NH2; lactam 5-10)
IC50 [3]: < 5 µM | IC50 [4]: < 11 µM

CCCCCCCC(=O)NCCCC[C@H](NC(=O)[C@H](C)NC(=O)[C@H](CC(C)C)NC(=O)[C@H](CCC(N)=O)NC(=O)[C@H](CCCCN)NC(=O)[C@H](CCCNC(=N)N)NC(=O)[C@@H]1CCCN1C(=O)[C@H](C)NC(=O)[C@H](CCCCN)NC(=O)CNC(=O)CNC(=O)[C@@H](NC(=O)[C@@H]1CCC(=O)NCCCC[C@H](NC(=O)[C@H](CCSC)NC(=O)[C@@H](NC(=O)[C@H](CCCNC(=N)N)NC(=O)[C@H](C)N)[C@@H](C)O)C(=O)N[C@@H]([C@@H](C)O)C(=O)N[C@@H](C)C(=O)N[C@@H](CCCNC(=N)N)C(=O)N[C@@H](CCCCN)C(=O)N1)[C@@H](C)O)C(N)=O [Compound 27]
IC50 [3]: 36.1 µM | H3K4me2 levels at the IGFBP2 promoter [5]: increases H3K4me2 marks | IC50 [4]: 92.4 µM | increase in global H3K4me2 compared to control ([6]; 10 µM, 48-hour exposure, normalized to GAPDH): 17.6 fold | change in global H3K4 methylation compared to control [7]: did not induce any changes | H3K4me2 levels at the FEZ1 promoter [8]: increases H3K4me2 marks

CCCCCCCC(=O)NCCCC[C@H](NC(=O)[C@H](C)NC(=O)[C@H](CC(C)C)NC(=O)[C@H](CCC(N)=O)NC(=O)[C@H](CCCCN)NC(=O)[C@H](CCCNC(=N)N)NC(=O)[C@@H]1CCCN1C(=O)[C@H](C)NC(=O)[C@H](CCCCN)NC(=O)CNC(=O)CNC(=O)[C@@H](NC(=O)[C@@H]1CCC(=O)NCCCC[C@H](NC(=O)[C@H](CCSC)NC(=O)[C@H](C)NC(=O)[C@H](CCCNC(=N)N)NC(=O)[C@H](C)N)C(=O)N[C@@H]([C@@H](C)O)C(=O)N[C@@H](C)C(=O)N[C@@H](CCCNC(=N)N)C(=O)N[C@@H](CCCCN)C(=O)N1)[C@@H](C)O)C(N)=O [Compound 28] (H-ARAMKTARKETGGKAPRKQLAK(Octanoyl)-NH2; lactam 5-10)
IC50 ([9]; 2 h): 95.1 µM | IC50 [3]: 28.1 µM | H3K4me2 levels at the IGFBP2 promoter [5]: greatest increase; also recorded: increases H3K4me2 marks | IC50 [4]: 40.2 µM | dose dependence of H3K4 methylation ([6]; 0.1 µM and 1.0 µM, 48 h, preliminary study): modest dose dependent increase | change in global H3K4 methylation compared to control [7]: did not induce any changes | H3K4me2 levels at the FEZ1 promoter [8]: greatest increase; also recorded: increases H3K4me2 marks

Cl.Cl.c1ccc([C@@H]2C[C@H]2NC2CCNCC2)cc1 [GSK-LSD1, reference compound]
H3K4me2 levels at the IGFBP2 promoter [5]: increases H3K4me2 marks; also recorded: somewhat less effective | H3K4me2 levels at the FEZ1 promoter [8]: increases H3K4me2 marks; also recorded: somewhat less effective

H-ARAM c[K^5TARK^9E^10] -NH2 [Compound 24]
% inhibition of LSD1 at 500 nM [10]: 59.8% and 59.78 ± 5.71% | % cell death Calu 6 [4]: inactive

H-ARAM c[K^5TARK^9E^10]TG-NH2 [Compound 23]
% cell death K562 ([9]; 1.0 µM): 90 ± 9.4% | % cell death K562 ([9]; 100 µM): 18 ± 3.7% | % inhibition of LSD1 at 500 nM [10]: 67.3% and 67.31 ± 5.81% | % cell death Calu 6 [4]: inactive

H-ARAM c[K^5TARK^9E^10]TGG-K^14A-NH2 [Compound 22]
% cell death K562 ([9]; 1.0 µM): 53 ± 11.3% | % cell death K562 ([9]; 100 µM): 11 ± 3.2% | % inhibition of LSD1 at 500 nM [10]: 73.4% and 73.43 ± 3.75% | % cell death Calu 6 [4]: inactive

H-ARAM c[K^5TARK^9E^10]TGG-K^14APRK-NH2 [Compound 21]
% cell death K562 ([9]; 1.0 µM): 59 ± 8.1% | % cell death K562 ([9]; 100 µM): 9.5 ± 6.7%

H-ARTM-c[K^5TARK^9E^10]TGGK^14APRKQLA-NH2 [Compound 9]
IC50 [11]: 153 µM | IC50 [12]: 158 µM

H-ARTMK^5TARKS^10TGGKAPRKQLA-OH [Compound 8]
Ki [13]: 50 nM | IC50 ([14]; read-out: IC50 (LSD1)): 51 nM | Ki ([14]; read-out: Ki (LSD1)): 40 nM
